According to patent publication US20060025419A1, “Imidazoquinoxaline compound for the treatment of melanoma” (priority 2004, published 2006):
Peptide text beside a SMILES is read from it. * marks the point of attachment. Cbz = O=C(OCc1ccccc1)*; CH2F = FC*

Columns and labels:
[1] = system: SK-Mel-5 cells; assay: Nuclear apoptosis (DNA fragmentation) by flow cytometry; assay type: cell-based, human; conditions: 50 μM, 48 h, p<0.05
Experimental: FIGS. 4A-4H. […] Paraffin-embedded tumor tissues were subjected to H&E staining (FIGS. 4C & D) and DeadEnd Fluorometric TUNEL-assay for detection of apoptosis (FIGS. 4E & F). The TUNEL-positive cells are visualized in green fluorescence in a red (Propidium Iodide) background by fluorescence microscopy. […] After 36 h incubation, cells were collected and fixed with 1% formaldehyde and 70% ice-cold ethanol. The apoptotic cells were examined using TUNEL-assay and analyzed by flow cytometry through measuring fluorescein-12-dUTP at 520 nm. The apoptotic rate is indicated in each box. Data shown are represented one of three independent experiments. […] Cells were fixed and stained with Propidium iodide. Cell fluorescence was measured by flow cytometry and the data were analyzed using DNA content histogram deconvolution software (Multicycle from Phoenix Flow Systems). The percentage of apoptotic cells with fragmented DNA (PI intensity sub-G0/G1) is indicated at each time point. The experiments were repeated twice, in duplicates for each point (total n=4).

[2] = system: SK-Mel-5 cells; assay: Western blot / confocal analysis of apoptotic proteins in subcellular fractions; assay type: cell-based, human; conditions: 50 μM with 10 μM BMS-345541, Western blot and confocal microscopy
Experimental: Subcellular mitochondria and cytoplasm were prepared and subjected to Western blot analysis for Bcl-2 and Bax. […] After exposure, mitochondria were isolated and incubated with 80 μM 3,3′dihexyloxacarbocyanine iodide (DiOC6) at 37° C. for 15 min. Δψm was determined by FACS analysis using 484/530 nm filters within 10 min while gating the forward and sideward scatters on intact mitochondria (FIG. 5C). […] Subcellular extracts were prepared and subjected to Western blot analysis for cytochrome-C and AIF. […] The supernatant was assessed for cytochrome-c release. 200 μM Ca^2+ was used as a positive control.
The cellular caspase-3 activity in samples was detected as described in Materials and Methods. […] Cells were fixed and stained with propidium iodide staining as described in FIG. 4H. The percentage of cell death was measured with flow cytometry. […] Cytosol was extracted and subjected to Western blot analysis for AIF, cytochrome-c (cyto-C) and actin. Actin was used as a loading control protein. […] Ref-1 was used as a nuclear marker protein. All data shown here were from three independent experiments. […] SK-Mel-5 cells were exposed to 10 μM BMS and/or pan-caspase inhibitor (Z-VAD-fmk, 50 μM).
Proteins from cell extracts were separated by 12% SDS-PAGE and electrophoretically transferred to nitrocellulose membranes. Nonspecific binding was blocked with 5% milk in TBST buffer (4 mM Tris base, 100 mM NaCl, pH 7.5, 0.05% Tween), incubated with the indicated primary antibodies with a dilution of 1:1000 at room temperature for 2 h or 4° C. for overnight and then with horseradish peroxidase-conjugated secondary antibody for 1 h. Blots were visualized by enhanced chemiluminescence assay.
The Mitochondria Isolation Kit (Pierce, Rockford, Ill.) was used for isolation of mitochondria from cultured melanoma cells according to the manufacture's instruction for the Reagent-based method. Briefly, cells (2×10^7) were collected, washed with PBS buffer and resuspended in 0.8 ml of Reagent A on ice for 2 min. 10 μl of Reagent B was added and samples were kept on ice, with vortexing very minute for 5 min. After addition of 0.8 ml of Reagent C, the mixture was centrifuged at 700×g for 10 min to remove the cell debris and nuclei. The supernatant was then centrifuged at 3,000×g for 15 min. The pellet (mitochondria) was washed with Reagent C. The purity of mitochondria was determined by Western blotting with β-actin, where β-actin negative preparation were fully to be pure. The supernatant (cytosolic fraction) was further cleared by centrifugation at 12,000×g for 15 min.
Cells were incubated with the anti-AIF polyclonal antibody for 2 h. Cells were washed twice and incubated with the secondary antibody conjugated with FITC for 1 h.

[3] = system: caspase-3; assay: Caspase-3 activity assay (Ac-DEVD-pNA) in cytosol extracts; assay type: cell-based, human; conditions: 50 μM pan-caspase inhibitor, 10 μM BMS-345541
[4] = system: human melanoma grafts; assay: Tumor growth in tumor-bearing mice treated with temozolomide; assay type: in vivo; conditions: daily 60 mg/kg orally

Row | block of BMS-345541 induction of caspase-3 activity [3] [%] | Compound | cells protected from nuclear apoptosis induced by 10 μM BMS-345541 [1] [%] | influence on AIF translocation to nucleus and nuclear condensation [2] | tumor growth inhibition [4] [%]
1 | 87.2 | COC(=O)C[C@H](NC(=O)[C@H](C)NC(=O)[C@@H](NC(=O)OCc1ccccc1)C(C)C)C(=O)CF [Z-VAD-fmk, reference compound] (Cbz-Val-Ala-Asp(OMe)-CH2F) | 11 | failed to influence | 
2 |  | Cn1nnc2c(C(N)=O)ncn2c1=O [temozolomide] |  |  | 81
